In PubChem BioAssay AID248 (DTP/NCI, 2004):
“And” between values parts separate entries of the source, which are not always exact repeats. Identical values can stand only once. Toxic doses and inconclusive results are not listed. Cut-off read from the data, not from the text of the source: active = T/C of 150% or more; inactive = T/C below 125%.

System: L1210 leukemia ip in BDF1 mice, survival T/C
Experiment: NCI In Vivo Anticancer Drug Screen. Data for tumor model L1210 Leukemia (intraperitoneal) in B6D2F1 (BDF1) mice
Settings: endpoint: mean survival time, higher = longer survival
Outline: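 Tumor cells were implanted, animals were treated, and survival was followed. The result divides the treated measurement by the vehicle-control measurement.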

[1] = dose: 50.0 mg/kg/injection, schedule: Q01DX009 (ip), vehicle: Klucel (hydroxypropylcellulose) (HPC)
[2] = dose: 100.0 mg/kg/injection, schedule: Q01DX009 (ip), vehicle: Klucel (hydroxypropylcellulose) (HPC)
[3] = dose: 100.0 mg/kg/injection, schedule: Q04DX003 (ip), vehicle: saline with Tween-80
[4] = dose: 200.0 mg/kg/injection, schedule: Q04DX003 (ip), vehicle: saline with Tween-80
[5] = dose: 400.0 mg/kg/injection, schedule: Q04DX003 (ip), vehicle: saline with Tween-80
[6] = dose: 100.0 mg/kg/injection, schedule: Q01DX001 (ip), vehicle: carboxymethylcellulose (CMC)
[7] = dose: 200.0 mg/kg/injection, schedule: Q01DX001 (ip), vehicle: carboxymethylcellulose (CMC)
[8] = dose: 400.0 mg/kg/injection, schedule: Q01DX001 (ip), vehicle: carboxymethylcellulose (CMC)
[9] = dose: 200.0 mg/kg/injection, schedule: Q01DX009 (ip), vehicle: Klucel (hydroxypropylcellulose) (HPC)
[10] = dose: 100.0 mg/kg/injection, schedule: Q04DX002 (ip), vehicle: Klucel (hydroxypropylcellulose) (HPC)
[11] = dose: 200.0 mg/kg/injection, schedule: Q04DX002 (ip), vehicle: Klucel (hydroxypropylcellulose) (HPC)
[12] = dose: 400.0 mg/kg/injection, schedule: Q04DX002 (ip), vehicle: Klucel (hydroxypropylcellulose) (HPC)
[13] = dose: 100.0 mg/kg/injection, schedule: Q01DX009 (ip), vehicle: saline with Tween-80
[14] = dose: 200.0 mg/kg/injection, schedule: Q01DX009 (ip), vehicle: saline with Tween-80
[15] = dose: 75.0 mg/kg/injection, schedule: Q01DX009 (ip), vehicle: Klucel (hydroxypropylcellulose) (HPC)
[16] = dose: 150.0 mg/kg/injection, schedule: Q01DX009 (ip), vehicle: Klucel (hydroxypropylcellulose) (HPC)
[17] = dose: 300.0 mg/kg/injection, schedule: Q01DX009 (ip), vehicle: Klucel (hydroxypropylcellulose) (HPC)
[18] = dose: 400.0 mg/kg/injection, schedule: Q01DX009 (ip), vehicle: saline with Tween-80

Measured: T/C

C=CS(=O)(=O)c1ccccc1
inactive: dose: 18.0 mg/kg/injection, schedule: Q04DX003 (ip), vehicle: saline with Tween-80 102 % of control | dose: 25.0 mg/kg/injection, schedule: Q01DX009 (ip), vehicle: Klucel (hydroxypropylcellulose) (HPC) 91 % of control | dose: 36.0 mg/kg/injection, schedule: Q04DX003 (ip), vehicle: saline with Tween-80 104 % of control | [1] 91 % of control | dose: 72.0 mg/kg/injection, schedule: Q04DX003 (ip), vehicle: saline with Tween-80 98 % of control | [2] 94 % of control | [3] 97 % of control | [4] 92 % of control | [5] 95 % of control

CCCCC(=O)N/N=C\c1cccc(I)c1
inactive: [6] 87 % of control | [7] 93 % of control | [8] 87 % of control

Cc1ccc(CNc2ccc(Cl)cc2)cc1
inactive: [2] 95 % of control | dose: 100.0 mg/kg/injection, schedule: Q04DX003 (ip), vehicle: Klucel (hydroxypropylcellulose) (HPC) 96 % of control | [9] 104 % of control | dose: 200.0 mg/kg/injection, schedule: Q04DX003 (ip), vehicle: Klucel (hydroxypropylcellulose) (HPC) 98 % of control | dose: 400.0 mg/kg/injection, schedule: Q04DX003 (ip), vehicle: Klucel (hydroxypropylcellulose) (HPC) 96 % of control

CCCCOP(=O)(OCCCC)O/C(C)=C(\C)OP(=O)(OCCCC)OCCCC
inactive: dose: 87.5 mg/kg/injection, schedule: Q01DX009 (ip), vehicle: carboxymethylcellulose (CMC) 92 % of control | dose: 175.0 mg/kg/injection, schedule: Q01DX009 (ip), vehicle: carboxymethylcellulose (CMC) 98 % of control

N#Cc1cccc(CS(=O)(=O)c2ccccc2)c1
inactive: [10] 104 % of control | [11] 96 % of control | [12] 89 % of control

C#CCSC(=S)NNc1ccccc1
inactive: [13] 95 % of control | [3] 101 % of control | [14] 97 % of control | [4] 97 % of control | [5] 93 % of control

c1ccc(NC(c2ccccc2)C(Nc2ccccc2)(c2ccccc2)c2ccccc2)cc1 (configuration not stated)
inactive: dose: 100.0 mg/kg/injection, schedule: Q04DX003 (ip), vehicle: other 89 % of control | dose: 200.0 mg/kg/injection, schedule: Q04DX003 (ip), vehicle: other 94 % of control | dose: 400.0 mg/kg/injection, schedule: Q04DX003 (ip), vehicle: other 87 % of control

CSc1ccc(NC(=O)Sc2ccccc2C)cc1
inactive: dose: 75.0 mg/kg/injection, schedule: Q01DX001 (ip), vehicle: Klucel (hydroxypropylcellulose) (HPC) 95 % of control | [15] 93 % of control and 95 % of control | dose: 75.0 mg/kg/injection, schedule: Q04DX003 (ip), vehicle: Klucel (hydroxypropylcellulose) (HPC) 103 % of control | [2] 95 % of control and 103 % of control | [10] 98 % of control and 105 % of control | dose: 150.0 mg/kg/injection, schedule: Q01DX001 (ip), vehicle: Klucel (hydroxypropylcellulose) (HPC) 94 % of control | [16] 101 % of control | dose: 150.0 mg/kg/injection, schedule: Q04DX003 (ip), vehicle: Klucel (hydroxypropylcellulose) (HPC) 87 % of control | [9] 109 % of control | [11] 97 % of control | dose: 300.0 mg/kg/injection, schedule: Q01DX001 (ip), vehicle: Klucel (hydroxypropylcellulose) (HPC) 96 % of control | [17] 86 % of control and 88 % of control | dose: 300.0 mg/kg/injection, schedule: Q04DX003 (ip), vehicle: Klucel (hydroxypropylcellulose) (HPC) 91 % of control | [12] 93 % of control and 94 % of control

CC(C)(CN=Cc1cccc(O)c1)N=Cc1cccc(O)c1
inactive: dose: 75.0 mg/kg/injection, schedule: Q01DX009 (ip), vehicle: DMSO 95 % of control | dose: 100.0 mg/kg/injection, schedule: Q01DX001 (ip), vehicle: DMSO 100 % of control | dose: 100.0 mg/kg/injection, schedule: Q04DX003 (ip), vehicle: DMSO 89 % of control | dose: 150.0 mg/kg/injection, schedule: Q01DX009 (ip), vehicle: DMSO 93 % of control | dose: 200.0 mg/kg/injection, schedule: Q01DX001 (ip), vehicle: DMSO 96 % of control | dose: 200.0 mg/kg/injection, schedule: Q04DX003 (ip), vehicle: DMSO 88 % of control | dose: 400.0 mg/kg/injection, schedule: Q01DX001 (ip), vehicle: DMSO 100 % of control | dose: 400.0 mg/kg/injection, schedule: Q04DX003 (ip), vehicle: DMSO 89 % of control

CC(=O)CC(=O)N(c1ccccn1)c1ccccn1
inactive: [6] 104 % of control | [7] 98 % of control | [8] 98 % of control

COC1C(OC(N)=O)C(O)C(Oc2ccc3c(O)c(N)c(=O)oc3c2C)OC1(C)C (configuration not stated)
inactive: dose: 37.5 mg/kg/injection, schedule: Q01DX009 (ip), vehicle: Klucel (hydroxypropylcellulose) (HPC) 98 % of control | [15] 101 % of control | [16] 104 % of control | [17] 101 % of control

CCOC(=O)CCc1ccc(N=NN(C)C(C)CC)cc1 (configuration not stated)
inactive: [6] 111 % of control | [7] 105 % of control | [8] 111 % of control

Cc1c(-c2ccccc2)sc(/N=C/c2ccc(Cl)c(Cl)c2)c1C#N
inactive: [13] 103 % of control and 104 % of control | dose: 100.0 mg/kg/injection, schedule: Q04DX002 (ip), vehicle: saline with Tween-80 96 % of control and 101 % of control | [14] 103 % of control and 108 % of control | dose: 200.0 mg/kg/injection, schedule: Q04DX002 (ip), vehicle: saline with Tween-80 97 % of control and 104 % of control | [18] 93 % of control and 97 % of control | dose: 400.0 mg/kg/injection, schedule: Q04DX002 (ip), vehicle: saline with Tween-80 104 % of control and 115 % of control

CC1(C)OCC(CO)O1 (configuration not stated)
inactive: [13] 101 % of control | [3] 105 % of control | [14] 98 % of control | [4] 97 % of control | [18] 104 % of control | [5] 100 % of control

Cc1c2ccccc2c(C)c2c1cc(C(=O)O)c1ccccc12
inactive: [11] 115 % of control | [12] 101 % of control

O=S1(=O)CCC(O)C1 (configuration not stated)
inactive: dose: 100.0 mg/kg/injection, schedule: Q01DX001 (ip), vehicle: saline 92 % of control | dose: 100.0 mg/kg/injection, schedule: Q01DX009 (ip), vehicle: saline 93 % of control | dose: 200.0 mg/kg/injection, schedule: Q01DX001 (ip), vehicle: saline 97 % of control | dose: 200.0 mg/kg/injection, schedule: Q01DX009 (ip), vehicle: saline 105 % of control | dose: 400.0 mg/kg/injection, schedule: Q01DX001 (ip), vehicle: saline 100 % of control | dose: 400.0 mg/kg/injection, schedule: Q01DX009 (ip), vehicle: saline 100 % of control

COc1ccc(Cl)cc1NC(=O)c1ccc(C(=O)Nc2cc(Cl)ccc2OC)cc1
inactive: [1] 109 % of control | [2] 90 % of control | [9] 86 % of control and 92 % of control | dose: 400.0 mg/kg/injection, schedule: Q01DX009 (ip), vehicle: Klucel (hydroxypropylcellulose) (HPC) 94 % of control

C[CH2][Hg][I]
inactive: dose: 25.0 mg/kg/injection, schedule: Q04DX002 (ip), vehicle: saline with Tween-80 95 % of control | dose: 50.0 mg/kg/injection, schedule: Q04DX002 (ip), vehicle: saline with Tween-80 97 % of control

CCCCCCC(CCCCCC)CC1CCCC1
inactive: dose: 50.0 mg/kg/injection, schedule: Q04DX002 (sc), vehicle: olive oil, sesame oil, peanut oil 103 % of control | dose: 100.0 mg/kg/injection, schedule: Q04DX002 (sc), vehicle: olive oil, sesame oil, peanut oil 97 % of control | dose: 200.0 mg/kg/injection, schedule: Q04DX002 (sc), vehicle: olive oil, sesame oil, peanut oil 97 % of control

N#Cc1c(N)[n+]([O-])c2c([n+]1[O-])CCCC2
inactive: [10] 101 % of control | [11] 104 % of control | [12] 87 % of control

CCCCC(=O)N(CCC)CCC
inactive: dose: 100.0 mg/kg/injection, schedule: Q04DX002 (ip), vehicle: saline 96 % of control | dose: 200.0 mg/kg/injection, schedule: Q04DX002 (ip), vehicle: saline 104 % of control | dose: 400.0 mg/kg/injection, schedule: Q04DX002 (ip), vehicle: saline 104 % of control
